These results are taken from patent US20090233950A1, “QUINAZOLINE DERIVATIVES” (priority 2006, published 2009).

One test addresses T1, PDGFRβ (Homo sapiens, UniProt P09619).
T1 construct: endogenous in cells; host or cells: MG63 osteosarcoma cells (ATCC)
As to the kind of experiment: In vitro phospho-Tyr751 PDGFRβ ELISA assay (Test (b)), MG63 osteosarcoma cells stimulated with PDGFBB. The test is classed as cell-based. The note with it: read-out: IC50 versus phospho-Tyr751 formation in PDGFRβ. Here is the method: (b) In Vitro phospho-Tyr751 PDGFRβ ELISA Assay
This assay uses a conventional ELISA method to determine the ability of test compounds to inhibit phosphorylation of tyrosine in PDGFRβ.
An MG63 osteosarcoma cell line [American Type Culture Collection (ATCC) CCL 1427] was routinely maintained at 37° C. with 7.5% CO2 in Dulbecco's modified Eagle's growth medium (DMEM; Sigma-Aldrich; Catalogue No. D6546) containing 10% foetal calf serum (FCS; Sigma-Aldrich; Catalogue No. F7524) and 2 mM L-glutamine (Invitrogen Ltd., Paisley, UK; Catalogue No. 25030-024).
For the assay, the cells were detached from the culture flask using a trypsin/ethylenediaminetetraacetic acid (EDTA) mixture (Invitrogen Ltd.; Catalogue No. 15400-054) and resuspended in a test medium comprising DMEM without phenol red (Sigma-Aldrich; Catalogue No. D5921) containing 1% charcoal-stripped foetal calf serum (FCS) (Sigma-Aldrich; Catalogue No. F7524, stripped by incubation with dextran-coated activated charcoal at 55° C. for 30 minutes with continuous stirring followed by removal of the charcoal by centrifugation and filter sterilisation) and 2 mM L-glutamine (Invitrogen Ltd., Catalogue No. 25030-024) to give 6×10^4 cells per ml. Aliquots (100 μl) were seeded into each of the wells of columns […] (excluding column 1) and rows B-G (excluding rows A and H) of a clear 96 well tissue culture plate (Corning Life Sciences, Koolhovenlaan, The Netherlands; Catalogue No. 3595) to give a density of about 6000 cells per well. Aliquots (100 μl) of culture media were placed in the outer wells to minimise edge effects. The cells were incubated overnight at 37° C. with 7.5% CO2 to allow the cells to adhere to the wells.
Test compounds were prepared as 10 mM stock solutions in DMSO and serially diluted as required with DMSO to give a range of concentrations. Aliquots (3 μl) of each compound concentration were added to test medium (300 μl) to create a second dilution range. Aliquots (16 μl) of each resultant compound concentration were added to the cells in each well. “Maximum” control cells received a dilution of DMSO plus test medium only. “Minimum” control cells received a reference PDGFR inhibitor (16 μl). The cells were incubated for 90 minutes at 37° C. with 7.5% CO2.
The resultant cells were stimulated with PDGFBB using the following procedure. A lyophilised powder of PDGFBB, (Sigma-Aldrich; Catalogue No. P4306) was mixed with sterile water to provide a stock solution of 10 μg/ml of PDGFBB. A dilution of this stock solution into test medium provided a 182 ng/ml PDGFBB solution. Aliquots thereof (44 μl) were added to compound treated cells and to the “Maximum” control cells. The “Minimum” control cells received medium only. The cells were incubated at 37° C. with 7.5% CO2 for 5 minutes. The solution from the wells was removed and the cells were lysed by the addition of 120 μl/well of RIPA buffer comprising 60 mM tris(hydroxymethyl)aminomethane hydrochloride (Tris-HCl), 150 mM sodium chloride, 1 mM EDTA, 1% v/v Igepal CA-630, 0.25% sodium deoxycholate, 1% v/v phosphatase inhibitor cocktail 1 P2850, 1% phosphatase inhibitor cocktail 2 P5726 and 0.5% v/v protease inhibitor cocktail P8340 (all chemicals and inhibitor cocktails were obtainable from the Sigma-Aldrich Company Ltd.). The resultant tissue culture plates were shaken for 5 minutes at ambient temperature to ensure full lysis and then frozen at −20° C. until required. […]
A general note: ELISA stands for enzyme-linked immunosorbent assay.

A further test concerns the target T2, KDR (VEGFR2) (Homo sapiens, UniProt P35968).
T2 construct: phosphorylation of KDR expressed in human umbilical vein endothelial cells (HUVECs); host or cells: HUVECs
As to the kind of experiment: In vitro phospho-KDR ELISA assay (Test (c)), HUVECs stimulated with VEGF. The note with it: read-out: IC50 versus phospho-tyrosine formation in KDR. The class given is cell-based. The protocol:
(c) In Vitro phospho-KDR ELISA Assay
This assay uses a conventional ELISA method to determine the ability of test compounds to inhibit phosphorylation of tyrosine in KDR (VEGFR2).
Human umbilical vein endothelial cells (HUVECs; PromoCell) were routinely incubated at 37° C. with 7.5% CO2 in ‘growth medium’ comprising MCDB 131 (Gibco Catalogue No. 10372-019; 500 ml) containing L-glutamine (Sigma Catalogue No. G3126; 0.848 g), 1% Penicillin Streptomycin (Gibco Catalogue No. 15140-122) and Fetal Bovine Serum (PAA Laboratories Catalogue No. A15-043; 50 ml).
For the assay, the cells were detached from the culture flask using a trypsin/ethylenediaminetetraacetic acid (EDTA) mixture (Invitrogen Ltd.; Catalogue No. 15400-054) and resuspended in ‘test medium’ comprising MCDB 131 (500 ml) containing L-glutamine (0.848 g), 1% Penicillin Streptomycin and Fetal Bovine Serum (10 ml). Aliquots (1 ml) were seeded into each well of a 24 well tissue culture plate (Corning Life Sciences; Catalogue No. 3527) to give a density of approximately 3.5×10^4 cells per well. The cells were incubated overnight at 37° C. with 7.5% CO2 to allow adherence to the well surface. The following morning the assay medium was decanted and an aliquot (0.5 ml) of ‘serum free medium’ comprising MCDB 131 (500 ml) containing L-glutamine (0.848 g) and 1% Penicillin Streptomycin was added to each well. The plates were incubated at 37° C. for 2.5 hours.
Test compounds were prepared as 10 mM stock solutions in DMSO and serially diluted with DMSO as required. Aliquots (3 μl) of each concentration of test compound were diluted with ‘serum free medium’ (300 μl). Aliquots (50 μl) of each resultant compound concentration were added to the cells in each well. “Maximum” control cells received only a dilution of DMSO whereas the “minimum” controls received a reference KDR inhibitor to give a final concentration of 1 μM. The cells were incubated for 90 minutes at 37° C. with 7.5% CO2.
The resultant cells were stimulated with VEGF using the following procedure. A lyophilised powder of VEGF (Sigma-Aldrich; Catalogue No. V7259) was mixed with PBS containing 0.1% filter-sterilised BSA (0.1% BSA/PBS) to provide a stock solution of 10 μg/ml of VEGF. A dilution of this stock solution into ‘serum free medium’ provided a 1000 ng/ml VEGF solution. Aliquots thereof (50 μl) were added to all wells. The cells were incubated at 37° C. with 7.5% CO2 for 5 minutes. The solution from the wells was removed and the cells were lysed by the addition of 100 μl/well of RIPA buffer comprising 60 mM Tris-HCl, 150 mM sodium chloride, 1 mM EDTA, 1% v/v Igepal CA-630, 0.25% sodium deoxycholate, 1% v/v phosphatase inhibitor cocktail 1 P2850, 1% phosphatase inhibitor cocktail 2 P5726 and 0.5% v/v protease inhibitor cocktail P8340. […]

T2 sequence (P35968 20-1356): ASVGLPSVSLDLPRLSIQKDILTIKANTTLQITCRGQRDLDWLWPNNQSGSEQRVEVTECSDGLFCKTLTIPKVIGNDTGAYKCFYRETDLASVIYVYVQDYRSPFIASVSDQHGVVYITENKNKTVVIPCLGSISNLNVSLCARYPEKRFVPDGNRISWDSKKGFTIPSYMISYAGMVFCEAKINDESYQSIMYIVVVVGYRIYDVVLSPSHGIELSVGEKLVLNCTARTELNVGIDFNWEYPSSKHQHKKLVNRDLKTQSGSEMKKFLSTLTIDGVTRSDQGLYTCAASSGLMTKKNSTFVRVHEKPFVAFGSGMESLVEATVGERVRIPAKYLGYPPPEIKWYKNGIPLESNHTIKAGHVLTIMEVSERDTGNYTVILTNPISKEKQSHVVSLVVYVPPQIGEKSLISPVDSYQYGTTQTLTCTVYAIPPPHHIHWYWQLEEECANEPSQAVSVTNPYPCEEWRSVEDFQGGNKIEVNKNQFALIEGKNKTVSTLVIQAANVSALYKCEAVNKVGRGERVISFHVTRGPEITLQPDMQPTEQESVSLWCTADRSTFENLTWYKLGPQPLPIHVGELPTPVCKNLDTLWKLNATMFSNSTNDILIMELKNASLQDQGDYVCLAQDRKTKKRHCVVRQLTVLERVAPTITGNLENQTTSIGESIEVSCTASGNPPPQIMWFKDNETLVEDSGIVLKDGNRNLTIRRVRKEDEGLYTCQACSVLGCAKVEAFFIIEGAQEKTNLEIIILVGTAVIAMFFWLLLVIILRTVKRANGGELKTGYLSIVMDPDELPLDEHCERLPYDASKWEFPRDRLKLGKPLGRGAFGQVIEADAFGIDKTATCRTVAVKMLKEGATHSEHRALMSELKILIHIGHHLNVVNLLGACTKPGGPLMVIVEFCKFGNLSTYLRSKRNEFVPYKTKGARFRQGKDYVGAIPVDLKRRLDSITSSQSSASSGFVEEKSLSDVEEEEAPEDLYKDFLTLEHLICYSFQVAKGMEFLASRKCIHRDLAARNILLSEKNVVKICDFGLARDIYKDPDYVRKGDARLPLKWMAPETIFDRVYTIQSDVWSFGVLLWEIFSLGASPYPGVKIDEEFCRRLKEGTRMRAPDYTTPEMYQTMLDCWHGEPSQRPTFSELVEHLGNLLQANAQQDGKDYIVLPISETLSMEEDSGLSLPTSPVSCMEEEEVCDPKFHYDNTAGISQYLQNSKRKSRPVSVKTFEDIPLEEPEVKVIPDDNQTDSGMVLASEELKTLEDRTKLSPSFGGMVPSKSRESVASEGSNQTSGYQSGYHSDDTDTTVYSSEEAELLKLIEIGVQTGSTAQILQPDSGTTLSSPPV
T1 sequence (P09619 33-1106): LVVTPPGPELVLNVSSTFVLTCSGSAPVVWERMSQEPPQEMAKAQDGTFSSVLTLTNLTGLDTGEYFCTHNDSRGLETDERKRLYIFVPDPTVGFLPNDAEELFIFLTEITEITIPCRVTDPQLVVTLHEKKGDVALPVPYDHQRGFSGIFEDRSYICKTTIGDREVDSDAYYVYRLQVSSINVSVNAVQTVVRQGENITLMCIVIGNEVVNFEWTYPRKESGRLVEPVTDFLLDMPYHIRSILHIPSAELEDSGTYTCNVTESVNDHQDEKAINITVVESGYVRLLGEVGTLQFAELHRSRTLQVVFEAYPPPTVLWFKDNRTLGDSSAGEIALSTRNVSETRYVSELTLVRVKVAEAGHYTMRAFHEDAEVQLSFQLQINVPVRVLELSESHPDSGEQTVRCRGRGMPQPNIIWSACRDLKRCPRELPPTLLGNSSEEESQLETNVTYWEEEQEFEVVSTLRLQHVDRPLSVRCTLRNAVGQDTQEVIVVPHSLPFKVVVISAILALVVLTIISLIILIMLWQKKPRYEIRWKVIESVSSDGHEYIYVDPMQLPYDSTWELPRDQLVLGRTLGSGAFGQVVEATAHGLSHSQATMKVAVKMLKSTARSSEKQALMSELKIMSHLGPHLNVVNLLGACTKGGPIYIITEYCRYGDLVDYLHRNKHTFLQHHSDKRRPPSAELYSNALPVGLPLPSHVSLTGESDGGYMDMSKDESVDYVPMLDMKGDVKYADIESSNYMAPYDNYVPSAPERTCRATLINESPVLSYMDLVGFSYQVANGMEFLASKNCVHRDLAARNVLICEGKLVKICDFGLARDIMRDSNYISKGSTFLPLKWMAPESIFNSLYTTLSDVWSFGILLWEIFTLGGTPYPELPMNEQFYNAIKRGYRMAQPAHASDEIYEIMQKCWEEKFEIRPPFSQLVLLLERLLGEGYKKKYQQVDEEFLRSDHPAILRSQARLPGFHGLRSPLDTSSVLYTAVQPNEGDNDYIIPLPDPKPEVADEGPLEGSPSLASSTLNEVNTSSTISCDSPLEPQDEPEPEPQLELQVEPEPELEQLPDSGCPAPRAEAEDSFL

What is called IC50 is the concentration that gives 50% inhibition. Turning to `COc1cc2ncnc(Oc3ccc(CC(=O)Nc4nc(C)c(C)s4)nc3)c2cc1OC` [Example 1, N-(4,5-dimethylthiazol-2-yl)-2-[5-(6,7-dimethoxyquinazolin-4-yloxy)pyridin-2-yl]acetamide], the IC50 at PDGFRβ is ~5 nM; at KDR (VEGFR2), ~2 nM.

Consider `COc1cc2ncnc(Oc3cnc(CC(=O)Nc4cnn(C(C)C)c4)c(OC)c3)c2cc1OC` [Example 8, N-(1-isopropyl-1H-pyrazol-4-yl)-2-[5-(6,7-dimethoxyquinazolin-4-yloxy)-3-methoxypyridin-2-yl]acetamide], for which the values for the 50% inhibitory concentration (IC50) at PDGFRβ and at KDR (VEGFR2) were ~5 nM and > 5000 nM, respectively.

Regarding `CCn1cc(NC(=O)Cc2ccc(Oc3ncnc4cc(OC)c(OC)cc34)cn2)cn1` [N-(1-ethyl-1H-pyrazol-4-yl)-2-[5-(6,7-dimethoxyquinazolin-4-yloxy)pyridin-2-yl]acetamide], the half-inhibitory concentration (IC50) at PDGFRβ is ~25 nM.

Take `COc1cc2ncnc(Oc3ccc(CC(=O)Nc4cc(C)on4)nc3)c2cc1OC` [N-(5-methylisoxazol-3-yl)-2-[5-(6,7-dimethoxyquinazolin-4-yloxy)pyridin-2-yl]acetamide]: the IC50 on PDGFRβ is ~25 nM; on KDR (VEGFR2), ~300 nM.

On to `CCn1cc(NC(=O)Cc2ncc(Oc3ncnc4cc(OC)c(OC)cc34)cc2OC)cn1` [Example 7, N-(1-ethyl-1H-pyrazol-4-yl)-2-[5-(6,7-dimethoxyquinazolin-4-yloxy)-3-methoxypyridin-2-yl]acetamide], for which the figures for the IC50 on PDGFRβ and on KDR (VEGFR2) were ~10 nM and > 3000 nM, respectively.
